Test results from ChEMBL document CHEMBL1141064, “Discovery and structure-activity relationships of novel sulfonamides as potent PTP1B inhibitors” (Bioorg Med Chem Lett, 2005).

Target: T1, Tyrosine-protein phosphatase non-receptor type 1 (Homo sapiens, UniProt P18031)
T1 sequence (P18031 whole entry): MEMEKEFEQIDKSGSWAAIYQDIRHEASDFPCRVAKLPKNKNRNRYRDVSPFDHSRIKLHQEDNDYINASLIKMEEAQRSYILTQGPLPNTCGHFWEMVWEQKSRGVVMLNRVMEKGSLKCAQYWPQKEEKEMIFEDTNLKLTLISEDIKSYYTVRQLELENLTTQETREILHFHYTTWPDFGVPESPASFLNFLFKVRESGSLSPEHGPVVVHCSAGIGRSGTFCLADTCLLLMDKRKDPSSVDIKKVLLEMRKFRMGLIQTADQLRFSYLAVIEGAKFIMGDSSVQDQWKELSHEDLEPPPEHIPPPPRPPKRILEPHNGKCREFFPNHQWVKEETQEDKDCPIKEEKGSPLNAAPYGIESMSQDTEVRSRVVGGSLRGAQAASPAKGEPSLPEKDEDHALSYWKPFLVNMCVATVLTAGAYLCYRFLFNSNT
Test: Inhibitory activity against protein tyrosine phosphatase 1B using O-methyl fluorescein monophosphate

Compound | IC50 | Ki
O=C(O)COc1ccc(S(=O)(=O)N(Cc2ccccc2)Cc2ccc(C(F)(F)P(=O)(O)O)cc2)cc1F | 3000 nM | 
COc1cc(CN(Cc2ccc(S(=O)(=O)N(C)C)cc2)S(=O)(=O)c2ccc(OCC(=O)O)cc2)ccc1C(F)(F)P(=O)(O)O | 1100 nM | 
O=C(O)COc1c(F)ccc(S(=O)(=O)N(Cc2ccccc2)Cc2ccc(C(F)(F)P(=O)(O)O)cc2)c1F | 1600 nM | 
CC(=O)NCCN(Cc1ccc(C(F)(F)P(=O)(O)O)cc1)S(=O)(=O)c1ccc(OCC(=O)O)cc1 | 9000 nM | 
CN(C)S(=O)(=O)c1ccc(CN(Cc2ccc(C(F)(F)P(=O)(O)O)cc2)S(=O)(=O)c2ccc(OCC(=O)O)cc2)cc1 | 1100 nM | 
O=C(c1ccc(O)cc1)N(Cc1ccc(-c2csnn2)cc1)Cc1ccc(C(F)(F)P(=O)(O)O)cc1 | 6900 nM | 
O=[N+]([O-])c1ccccc1S(=O)(=O)N(Cc1ccccc1)Cc1ccc(C(F)(F)P(=O)(O)O)cc1 | 7000 nM | 
O=C(O)COc1ccc(S(=O)(=O)N(Cc2ccc(-c3csnn3)cc2)Cc2ccc(C(F)(F)P(=O)(O)O)c(Br)c2)cc1 | 35 nM | 53 nM
CN(C)S(=O)(=O)c1ccc(CN(Cc2ccc(C(F)(F)P(=O)(O)O)c(Br)c2)S(=O)(=O)c2ccc(OCC(=O)O)cc2)cc1 | 28 nM | 13 nM
CN(Cc1ccccc1)C(=O)CN(Cc1ccc(OCC(=O)O)cc1)Cc1ccc(C(F)(F)P(=O)(O)O)cc1 | 67500 nM | 
O=C(O)COc1ccc(S(=O)(=O)N(Cc2ccc(NC(=O)c3ccccc3)cc2)Cc2ccc(C(F)(F)P(=O)(O)O)cc2)cc1 | 630 nM | 
O=P(O)(O)C(F)(F)c1ccc(CN(Cc2ccccc2)S(=O)(=O)c2ccccc2)cc1 | 4200 nM | 
O=C(O)COc1ccc(S(=O)(=O)N(Cc2ccccc2)Cc2ccc(C(F)(F)P(=O)(O)O)cc2)cc1 | 600 nM | 
COc1cc(CN(Cc2ccc(-c3csnn3)cc2)S(=O)(=O)c2ccc(OCC(=O)O)cc2)ccc1C(F)(F)P(=O)(O)O | 60 nM | 
O=C(O)COc1ccc(S(=O)(=O)N(Cc2ccccc2)Cc2ccc(C(F)(F)P(=O)(O)O)cc2)cc1Br | 4000 nM | 
O=C(O)COc1c(F)cc(S(=O)(=O)N(Cc2ccccc2)Cc2ccc(C(F)(F)P(=O)(O)O)cc2)cc1F | 1000 nM | 
O=P(O)(O)C(F)(F)c1ccc(CNCc2ccc(-c3csnn3)cc2)cc1 | 13700 nM | 

Compound | IC50 | Ki
O=C(O)COc1ccc(S(=O)(=O)N(Cc2ccccc2)Cc2ccc(C(F)(F)P(=O)(O)O)cc2)cc1OC(F)(F)F | 5000 nM | 
O=C(O)COc1ccc(C(=O)N(Cc2ccc(-c3csnn3)cc2)Cc2ccc(C(F)(F)P(=O)(O)O)cc2)cc1 | 2300 nM | 
O=C(c1ccc(CN(Cc2ccccc2)S(=O)(=O)c2ccccc2[N+](=O)[O-])cc1)C(F)(F)P(=O)(O)O | 12000 nM | 
CS(=O)(=O)Nc1ccc(CN(Cc2ccc(C(F)(F)P(=O)(O)O)cc2)S(=O)(=O)c2ccc(OCC(=O)O)cc2)cc1 | 180 nM | 
O=C(O)COc1ccc(S(=O)(=O)N(Cc2ccc(-c3csnn3)cc2)Cc2ccc(C(F)(F)P(=O)(O)O)cc2)cc1 | 74 nM | 56 nM
O=P(O)(O)C(F)(F)c1ccc(CN(Cc2ccc(-c3csnn3)cc2)S(=O)(=O)c2ccccc2)cc1 | 210 nM | 98 nM
CN(Cc1ccccc1)C(=O)CN(Cc1ccc(C(F)(F)P(=O)(O)O)cc1)S(=O)(=O)c1ccc(OCC(=O)O)cc1 | 600 nM | 590 nM
O=C(O)COc1ccc(S(=O)(=O)N(Cc2ccc(C(F)(F)P(=O)(O)O)cc2)Cc2cccs2)cc1 | 1000 nM | 
Cc1cc(S(=O)(=O)N(Cc2ccccc2)Cc2ccc(C(F)(F)P(=O)(O)O)cc2)cc(C)c1OCC(=O)O | 1900 nM | 
O=C(O)COc1ccc(S(=O)(=O)N(Cc2ccccc2)Cc2ccc(C(F)(F)P(=O)(O)O)cc2)cc1C(F)(F)F | 4000 nM | 
O=C(O)COc1ccc(S(=O)(=O)N(Cc2ccccc2)Cc2ccc(C(F)(F)P(=O)(O)O)cc2)cc1Cl | 3000 nM | 
Cc1cc(S(=O)(=O)N(Cc2ccccc2)Cc2ccc(C(F)(F)P(=O)(O)O)cc2)ccc1OCC(=O)O | 4000 nM | 
CN(Cc1ccccc1)C(=O)CN(Cc1ccc(C(F)(F)P(=O)(O)O)c(Br)c1)S(=O)(=O)c1ccc(OCC(=O)O)cc1 | 31 nM | 14 nM
O=C(O)c1cc(S(=O)(=O)N(Cc2ccccc2)Cc2ccc(C(F)(F)P(=O)(O)O)cc2)ccc1O | 2900 nM | 
O=C(O)COc1ccc(S(=O)(=O)N(Cc2ccc(C(F)(F)P(=O)(O)O)cc2)c2ccc(-c3csnn3)cc2)cc1 | 220 nM | 
O=C(O)COc1ccc(S(=O)(=O)N(CC(=O)N2CCCCC2)Cc2ccc(C(F)(F)P(=O)(O)O)cc2)cc1 | 6800 nM | 
CC(=O)c1cccc(CN(Cc2ccc(C(F)(F)P(=O)(O)O)cc2)S(=O)(=O)c2ccc(OCC(=O)O)cc2)c1 | 770 nM | 
